The text below walks through data of US20260191817A1, “FIBROBLAST MODULATORS IN STROMA-RICH TUMORS” (UNIVERSITEIT GENT, priority 2022, published 2026).

In test [1] the test system is HCA2 hTERT dermal fibroblasts. As to the kind of experiment: AFM spheroid stiffness, HCA2 hTERT dermal fibroblasts. It counts as cell-based. The following applies: HCA2 hTERT normal dermal fibroblasts; 1 μM, 48 h. The protocol: Selectivity for CAFs with respect to normal fibroblasts and other cell types was assessed by performing an identical experiment with normal fibroblasts and other cell types, where compounds were considered selective for CAFs if they only modulate CAF stiffness.
U-shaped, 384-well ULA plates (cat. no. MS-9384UZ, S-bio) were seeded with a suspension of cell-specific culture media with cells. Cells were allowed to form spheroids for an appropriate time under treatment conditions before use in experiments. Cell culture dishes (cat. no. 734-2814, VWR) were filled with collagen gel and placed at 37° C. for an appropriate time to allow solidification. For each condition, spheroids were pooled in one cell culture dish. The medium was removed (stored at 37° C.) to promote attachment of the bottom of each spheroid to the collagen gel. The cell culture dishes were incubated at 37° C. After the incubation period, the stored medium was carefully (prevent detachment of spheroids) added to the dishes.
Mechanical measurements were performed using an atomic force microscope. To indent the spheroids an in-house made colloidal probe was used. Force curves were collected using an appropriate setpoint and probe speed (depending on the stiffness of the spheroids). On each spheroid multiple force curves were collected. Collected curves were then processed using the JPK DP software. Young's modulus was extracted from the force curves. All experiments were performed in biological triplicate.
To generate 3D cultures mimicking the complexity and pathophysiology of in vivo tumors, spheroids were used (cfr. point 4). Spheroids are considered to better simulate cellular heterogeneity, nutrient and oxygen gradients, cell-cell interactions, cell-matrix interactions, gene expression profiles, stromal interactions, therapeutic responses, multicellular resistance, drug penetration and anti-apoptotic signaling.

The test system of another test is 4T1-luc cells. The experiment in a line: 4T1-based intraductal model for triple-negative breast cancer: metastases. It counts as in vivo, BALB/c mice. The following applies: oral in Medigel, 100 mg/kg three times per day; 6 w p.i.; compared to DMSO. On the procedure: Intraductal inoculations were performed in the third mammary gland pair of lactating female mice. In order to become lactating, 8-w-old female BALB/c mice were mated with male BALB/c mice of the same age and pups were weaned 12-14 d after delivery. One hour after weaning, lactating females received inhalation anesthesia using a mixture of oxygen and isoflurane (2-3%) and were subsequently inoculated through the mammary teat canal using a 32-gauge blunt needle with 5×10^4 4T1-luc cells suspended in a 100 μl mixture of PBS and Matrigel® (1:10; Corning, Bedford, MA, USA). All necessary materials for inoculation were pre-cooled to avoid Matrigel® coagulation. […]
Compounds were dissolved in DMSO. […] The amount of Medigel given to the mice was weekly determined and depended on the mean mouse body weight and consumption. […]
Body weight and body temperature were measured every day during the first week p.i., and once a week during the following 5 weeks (i.e. up to 6 w p.i.) using a digital weighing scale and a rectal temperature probe, respectively. As a measurement of primary tumor growth, primary tumor volumes were weekly monitored using a digital caliper and 4T1-luc-derived bioluminescence in primary tumors was monitored at 1, 3 and 6 w p.i. using the IVIS lumina III system (PerkinElmer, Zaventem, Belgium). […]

Turning to `COc1cc(C(=O)/C=C/c2ccc(F)cc2)cc(OC)c1OC` [Compound A1, 3-(4-Fluorophenyl)-1-(3,4,5-trimethoxyphenyl)prop2-en-1-one], the spheroid stiffness entry in test [1] is listed as “no effect”. The “metastatic burden in lung, liver and axillary lymph node metastases (ex-vivo bioluminescence)” value with 4T1-luc cells was “overall reduction”.
Consider `COc1cc2oc(-c3ccc(F)cc3)cc(=O)c2c(OC)c1OC` [Compound B1, 2-(4-Fluorophenyl)-5,6,7-trimethoxy-4H-chromen-4-one], for which the spheroid stiffness entry in test [1] is given as “no effect”. In addition, the “metastatic burden in lung, liver and axillary lymph node metastases (ex-vivo bioluminescence)” value in the test on 4T1-luc cells is “overall reduction”.
